According to US7829665B2 (priority 2005, dated 2010):

What follows are compounds tested against T1, full-length NS3/NS4A-2 (HCV NS3 protease) (Hepatitis C virus genotype 1a, UniProt P27958) (assay: NS3-NS4 protease assay / NS3 inhibition assay (RETS1 substrate, fluorescence kinetic read)). Conditions: Table 22; read-out: NS3-NS4 IC50.
T1 construct: Recombinant E. coli or Baculovirus full-length NS3 was diluted to 3.33 μM with assay buffer; made in house; host or cells: E. coli or baculovirus (BV) expression system
Type: biochemical
Method in brief: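 Full-length NS3 from E. coli (2 nM in assay) or baculovirus (3 nM) was precomplexed with excess NS4A-2 peptide, then preincubated 10 min at room temperature with serially diluted compounds starting at 50 microM. Reaction was started with RETS1 substrate at 8 μM before addition and read kinetically for 30 min (ex 335/em 495 nm). Four-parameter IC50s were converted to Ki by Cheng-Prusoff using Km 2.03 μM (E. coli) or 1.74 μM (BV).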

T1 sequence (P27958 1027-1657): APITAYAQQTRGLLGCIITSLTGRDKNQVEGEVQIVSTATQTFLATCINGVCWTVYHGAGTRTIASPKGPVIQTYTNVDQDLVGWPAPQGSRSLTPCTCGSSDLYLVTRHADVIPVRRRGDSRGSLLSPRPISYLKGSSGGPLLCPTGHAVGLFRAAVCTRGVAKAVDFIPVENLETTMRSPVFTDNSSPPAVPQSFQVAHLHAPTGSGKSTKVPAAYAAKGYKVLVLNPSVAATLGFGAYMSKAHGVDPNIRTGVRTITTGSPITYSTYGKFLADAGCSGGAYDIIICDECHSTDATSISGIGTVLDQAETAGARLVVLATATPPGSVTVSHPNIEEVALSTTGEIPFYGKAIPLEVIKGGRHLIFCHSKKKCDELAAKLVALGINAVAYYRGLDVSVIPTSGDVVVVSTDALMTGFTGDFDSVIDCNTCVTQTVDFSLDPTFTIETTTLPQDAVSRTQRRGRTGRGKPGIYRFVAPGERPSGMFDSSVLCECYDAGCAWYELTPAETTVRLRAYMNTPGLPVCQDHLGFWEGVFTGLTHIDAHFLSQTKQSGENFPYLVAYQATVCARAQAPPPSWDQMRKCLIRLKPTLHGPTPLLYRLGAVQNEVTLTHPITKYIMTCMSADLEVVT

| SMILES | IC50 |
| --- | --- |
| CC(C)(C)OC(=O)N[C@H]1CCCCC/C=C\[C@@H]2C[C@@]2(C(=O)Nc2cccc(Cl)c2)NC(=O)[C@@H]2CCCN2C1=O [Compound 2317] | < 1 µM |

Same assay, conditions: recombinant E. coli or Baculovirus full-length NS3 with NS4A-2; read-out: NS3-NS4 IC50

| SMILES | IC50 |
| --- | --- |
| COCC1(S(=O)(=O)NC(=O)[C@@]23C[C@H]2/C=C\CCCCC[C@H](NC(=O)OC(C)(C)C)C(=O)N2CCC[C@H]2C(=O)N3)CC1 [Compound 302] | < 10 µM |
| CN(c1ccccc1)S(=O)(=O)NC(=O)[C@@]12C[C@H]1/C=C\CCCCC[C@H](NC(=O)OC(C)(C)C)C(=O)N1CCC[C@H]1C(=O)N2 [Compound 2227] | < 10 µM |
| CC(C)(C)OC(=O)N[C@H]1CCCCC/C=C\[C@@H]2C[C@@]2(C(=O)NS(=O)(=O)c2ccccc2Br)NC(=O)[C@@H]2CCCN2C1=O [Compound 2111] | < 10 µM |
| CCOC(=O)[C@@]12C[C@H]1/C=C\CCCCC[C@H](N)C(=O)N1C[C@H](OC(=O)N3Cc4ccc(OCCNC(C)C)cc4C3)C[C@H]1C(=O)N2 [Compound 128] | > 10 µM |
| C[C@H](NC(=O)O[C@@H]1C[C@H]2C(=O)N[C@]3(C(=O)O)C[C@H]3/C=C\CCCCC[C@H](NC(=O)OC(C)(C)C)C(=O)N2C1)c1ccc(F)cn1 [Compound 147] | > 10 µM |
| CN(Cc1ccccc1)S(=O)(=O)NC(=O)[C@@]12C[C@H]1/C=C\CCCCC[C@H](NC(=O)OC(C)(C)C)C(=O)N1CCC[C@H]1C(=O)N2 [Compound 417] | < 10 µM |
| CC(C)(C)OC(=O)N[C@H]1CCCCC/C=C\[C@@H]2C[C@@]2(C(=O)O)NC(=O)[C@@H]2C[C@@H](OC(=O)NCc3ccc(F)cn3)CN2C1=O [Compound 151] | < 10 µM |
| CC(C)S(=O)(=O)NC(=O)[C@@]12C[C@H]1/C=C\CCCCC[C@H](NC(=O)OC1CCCC1)C(=O)N1C[C@H](OC(=O)N3CCc4ccccc4C3)C[C@H]1C(=O)N2 [Compound 118] | < 0.1 µM |
| CC(C)(C)OC(=O)N[C@H]1CCCCC/C=C\[C@@H]2C[C@@]2(C(=O)NS(=O)(=O)N2CCC2)NC(=O)[C@@H]2CCCN2C1=O [Compound 2206] | < 10 µM |
| CC(C)COC(=O)N[C@H]1CCCCC/C=C\[C@@H]2C[C@@]2(C(=O)NS(=O)(=O)Nc2ccc(Cl)cc2)NC(=O)[C@@H]2CCCN2C1=O [Compound 419] | < 10 µM |
| O=C(N[C@H]1CCCCC/C=C\[C@@H]2C[C@@]2(C(=O)NS(=O)(=O)Nc2ccc(Cl)cc2)NC(=O)[C@@H]2CCCN2C1=O)C1CC1 [Compound 428] | < 10 µM |
| CC(C)(C)OC(=O)N[C@H]1CCCCC/C=C\[C@@H]2C[C@@]2(C(=O)NS(=O)(=O)Cc2ccc(Cl)cc2)NC(=O)[C@@H]2CCCN2C1=O [Compound 2119] | < 1 µM |
| CC(C)(C)OC(=O)N[C@H]1CCCCC/C=C\[C@@H]2C[C@@]2(C(=O)NS(=O)(=O)NCCc2cccnc2)NC(=O)[C@@H]2CCCN2C1=O [Compound 424] | > 10 µM |
| CCOC(=O)[C@@]12C[C@H]1/C=C\CCCCC[C@H](NC(=O)OC(C)(C)C)C(=O)N1C[C@H](OC(=O)N3Cc4ccc(OCCNC(C)C)cc4C3)C[C@H]1C(=O)N2 [Compound 125] | < 10 µM |
| O=C(N[C@H]1CCCCC/C=C\[C@@H]2C[C@@]2(C(=O)O)NC(=O)C2Cc3cc(Oc4cccc(Cl)c4)ccc3CN2C1=O)OC1CCCC1 (stereo partly shown) [Compound 2002, (Z)-15-(3-chlorophenoxy)-9-(cyclopentyloxycarbonyl)-10,18-dioxo-1a,4,5,6,7,8,9,10,12,17,17a,18,19,19a-tetradecahydro-1H-11,14-diaza-bicyclo[13.1.0]hexadeca-1(16), 2-dieno[11,12-b]isoquinoline-19a-carboxylic acid] | < 10 µM |
| Cc1cc(Cl)cc(Cl)c1S(=O)(=O)NC(=O)[C@@]12C[C@H]1/C=C\CCCCC[C@H](NC(=O)OC(C)(C)C)C(=O)N1CCC[C@H]1C(=O)N2 [Compound 2123] | < 1 µM |
| COc1cccc(CCNS(=O)(=O)NC(=O)[C@@]23C[C@H]2/C=C\CCCCC[C@H](NC(=O)OC(C)(C)C)C(=O)N2CCC[C@H]2C(=O)N3)c1 [Compound 414] | > 10 µM |
| CN(c1ccc(F)cc1)S(=O)(=O)NC(=O)[C@@]12C[C@H]1/C=C\CCCCC[C@H](NC(=O)OC(C)(C)C)C(=O)N1CCC[C@H]1C(=O)N2 [Compound 2229] | < 10 µM |
